For the test, the system named is high-risk patients undergoing CABG surgery with cardiopulmonary bypass. The experiment in a line: Cognitive function after CABG surgery, Mini Mental State Exam (MMSE), MEND-CABG trial. The class given is in vivo, human. The conditions noted are these: for MMSE at POD 30, Mean / MMSE at POD 90, Mean: score 0-30. The protocol: The ability of P5P to protect against cognitive decline following CABG surgery was evaluated through the administration of a battery of validated psychometric tests pre-operatively, 4 days after surgery, 30 days after surgery, and 90 days after surgery.
A randomized, double-blind placebo-controlled, dose-ranging, parallel-arm multi-center study was undertaken, on high-risk patients undergoing CABG surgery with cardiopulmonary bypass.
Patients were identified as “high risk” if they had two or more of the following risk factors: • Age greater than 65 years; • Diabetes mellitus; • History of congestive heart failure; • History of a previous non-disabling stroke, transient ischemic attack, or carotid endarterectomy; • Prior CABG surgery; • Urgent CABG intervention defined as the need to stay in the hospital (although the patient may be operated on within a normal scheduling routine); • History of myocardial infarction that occurred more than 48 hours but less than 6 weeks prior to CABG surgery; and • Presence of at least one asymptomatic carotid artery stenosis (>50%) either in one or two carotid arteries.
Approximately 900 high risk pre-CABG patients in 42 different treatment centers in North America were screened and randomized to three groups of approximately 300 patients each, prior to their bypass surgery, as follows. Patients were either placed in a control group (placebo), treated with 250 mg/day of P5P, (250 mg/day), or treated with 750 mg/day of P5P (750 mg/day). The first dose of study medication was administered at 3-10 hours prior to CABG surgery. In the event of surgery delay or rescheduling, a second pre-operative dose of P5P was administered so that all patients received study medication 3-10 hours before surgery. Treatment continued for 30 days after surgery (post operative day (POD) 30). Patients received follow-up evaluations up to and including postoperative day (POD) 4, on POD 30 and on POD 90.
Patients were measured to assess change in cognitive function by the effects of P5P on neurological events following CABG surgery by methods of Mini Mental State Exam and psychometric testing (grooved pegboard).
MMSE is a well validated test to screen cognitive function (Folstein, J Psychiatr Res. 1975 Nov.;12(3):189-98). It measures orientation, registration (immediate memory), short-term (but not long-term) memory, and language functioning. The test is scored from 0-30, with scores of 25-30 considered normal, scores of 18-24 indicative of mild cognitive impairment, and scores under 17 indicative of severe impairment (Crum, JAMA. 1993 May 12;269(18):2386-91). This test is appropriate to indicate the presence of cognitive impairment.
The MMSE was administered to all 900 patients at screening, post-operative day (POD) 30, and POD 90. The MMSE score at POD 90 was analyzed using an analysis of covariance (ANOCO) model, adjusting for the MMSE score at screening. […] The results with P5P treatment (either 250 or 750 mg/day) were tabulated in Table 7, according to screening MMSE score.

Take `Cc1ncc(COP(=O)(O)O)c(C=O)c1O` [P5P, 3-hydroxy-2-methyl-5-[(phosphonooxy)methyl]-4-pyridine-carboxaldehyde]: the “MMSE at POD 90, Adjusted Mean” value runs as follows: (250 mg/day, MMSE screening = 25, ANOCO p 0.0067 vs placebo) 27.74; (250 mg/day, MMSE screening = 26, ANOCO p 0.0074 vs placebo) 28.08; (250 mg/day, MMSE screening = 27, ANOCO p 0.0116 vs placebo) 28.42; (250 mg/day, MMSE screening = 28, ANOCO p 0.0579 vs placebo) 28.76; (250 mg/day, MMSE screening = 29, ANOCO p 0.7654 vs placebo) 29.10; (250 mg/day, MMSE screening = 30, ANOCO p 0.2726 vs placebo) 29.44. Further, the “MMSE at POD 90, Adjusted Mean” value is, setting by setting: (750 mg/day, MMSE screening = 25, ANOCO p 0.0664 vs placebo) 27.41; (750 mg/day, MMSE screening = 26, ANOCO p 0.0701 vs placebo) 27.83; (750 mg/day, MMSE screening = 27, ANOCO p 0.0875 vs placebo) 28.25; (750 mg/day, MMSE screening = 28, ANOCO p 0.1926 vs placebo) 28.67; (750 mg/day, MMSE screening = 29, ANOCO p 0.8350 vs placebo) 29.08; (750 mg/day, MMSE screening = 30, ANOCO p 0.4317 vs placebo) 29.50. Further, the “MMSE at POD 30, Mean” value is listed as 28.57 (250 mg/day) and 28.79 (750 mg/day). Besides, the “MMSE at POD 90, Mean” value worked out at 28.97 (250 mg/day) and 28.99 (750 mg/day). The “protection against the decline in overall neurocognitive function associated with CABG surgery” value (MEND-CABG trial, 250 or 750 mg/day) is “provided protection”. Besides, the “Improvements in MMSE score, 250 mg/day dose group compared with 750 mg/day dose group” value (in particular in patients with lower MMSE scores at screening) is “more significant”.

Source of the values: US20070149485A1, “SELECTED DOSAGE FOR THE TREATMENT OF CARDIOVASCULAR AND RELATED PATHOLOGIES” (Medicure International, Inc., priority 2005, published 2007).
